Assay results reported in patent US8952024B2, “Herbicidal pyrimidone derivatives” (E I du Pont de Nemours and Company, priority 2009, dated 2015).

Assays:
Experiment in all cases: Test B pre-/postemergence plant response
Format in all cases: in vivo
[1] = test system: morningglory (Ipomoea coccinea); details: Postemergence
How it was run: (§1)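 Compound in solvent + surfactant applied pre-em (loam/sand) or post-em (plants 2–18 cm, peat medium); greenhouse hold 13–15 days; visual 0–100 control score.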

[2] = test system: Italian ryegrass (Lolium multiflorum); details: Postemergence
How it was run: as §1

[3] = test system: wheat (Triticum aestivum); details: Postemergence
How it was run: as §1

[4] = test system: cocklebur (Xanthium strumarium); details: Postemergence
How it was run: as §1

[5] = test system: yellow nutsedge (Cyperus esculentus); details: Postemergence
How it was run: as §1

[6] = test system: soybean (Glycine max); details: Postemergence
How it was run: as §1

[7] = test system: velvetleaf (Abutilon theophrasti); details: Postemergence
How it was run: as §1

[8] = test system: bermudagrass (Cynodon dactylon); details: for Bermudagrass plant response rating (0 to 100 scale): 62 g ai/ha, postemergence, 0 is no effect, 100 is complete control; for Plant response rating, Bermudagrass: Postemergence
How it was run: as §1

[9] = test system: large crabgrass (Digitaria sanguinalis); details: Postemergence
How it was run: as §1

[10] = test system: kochia (Kochia scoparia); details: Postemergence
How it was run: as §1

[11] = test system: downy bromegrass (Bromus tectorum); details: for Bromegrass, Downy plant response rating (0 to 100 scale): 62 g ai/ha, postemergence, 0 is no effect, 100 is complete control; for Plant response rating, Bromegrass, Downy: Postemergence
How it was run: as §1

[12] = test system: woolly cupgrass (Eriochloa villosa); details: Postemergence
How it was run: as §1

[13] = 31 g ai/ha, 0 to 100 scale (0 no effect, 100 complete control)
[14] = 125 g ai/ha, scale 0 to 100 (0 no effect, 100 complete control)
[15] = 250 g ai/ha, scale 0 to 100 (0 no effect, 100 complete control), 13 to 15 days

## Cc1ccc(F)cc1-n1c(-c2cccc(Cl)c2)ncc(C(=O)C2=C(O)CCCC2=O)c1=O [Compound 157]
[1]; [13]
  Plant response rating, Morningglory: 20
[1]; [14]
  Plant response rating, Morningglory: 95
[1]; [15]
  Plant response rating, Morningglory: 100
[2]; [13]
  Plant response rating, Ryegrass, Italian: 10
[2]; [14]
  Plant response rating, Ryegrass, Italian: 30
[2]; [15]
  Plant response rating, Ryegrass, Italian: 35
[3]; [13]
  Plant response rating, Wheat: 0
[3]; [14]
  Plant response rating, Wheat: 20
[3]; [15]
  Plant response rating, Wheat: 30
[4]; [13]
  Plant response rating, Cocklebur: 100
[4]; [14]
  Plant response rating, Cocklebur: 100
[4]; [15]
  Plant response rating, Cocklebur: 100
[5]; [13]
  Plant response rating, Nutsedge, Yellow: 30
[5]; [14]
  Plant response rating, Nutsedge, Yellow: 40
[5]; [15]
  Plant response rating, Nutsedge, Yellow: 45
[6]; [13]
  Plant response rating, Soybean: 95
[6]; [14]
  Plant response rating, Soybean: 100
[6]; [15]
  Plant response rating, Soybean: 100
[7]; [13]
  Plant response rating, Velvetleaf: 100
[7]; [14]
  Plant response rating, Velvetleaf: 100
[7]; [15]
  Plant response rating, Velvetleaf: 100
[8]; 13 to 15 days
  Bermudagrass plant response rating (0 to 100 scale): 90
[8]; [13]
  Plant response rating, Bermudagrass: 75
[8]; [14]
  Plant response rating, Bermudagrass: 100
[8]; [15]
  Plant response rating, Bermudagrass: 100
[9]; [13]
  Plant response rating, Crabgrass, Large: 80
[9]; [14]
  Plant response rating, Crabgrass, Large: 98
[9]; [15]
  Plant response rating, Crabgrass, Large: 100
[10]; [13]
  Plant response rating, Kochia: 0
[10]; [14]
  Plant response rating, Kochia: 10
[10]; [15]
  Plant response rating, Kochia: 45
[11]; 13 to 15 days
  Bromegrass, Downy plant response rating (0 to 100 scale): 40
[11]; [13]
  Plant response rating, Bromegrass, Downy: 40
[11]; [14]
  Plant response rating, Bromegrass, Downy: 60
[11]; [15]
  Plant response rating, Bromegrass, Downy: 65
[12]; [13]
  Plant response rating, Cupgrass, Woolly: 85
[12]; [14]
  Plant response rating, Cupgrass, Woolly: 98
[12]; [15]
  Plant response rating, Cupgrass, Woolly: 98

## Cc1ccccc1-n1c(-c2cc(F)cc(F)c2)ncc(C(=O)C2=C(O)CCCC2=O)c1=O [Compound 159]
[1]; 8 g ai/ha, 0 to 100 scale
  Plant response rating, Morningglory: 0
[1]; 16 g ai/ha, 0 to 100 scale
  Plant response rating, Morningglory: 10
[1]; [13]
  Plant response rating, Morningglory: 60
[2]; 8 g ai/ha, 0 to 100 scale
  Plant response rating, Ryegrass, Italian: 0
[2]; 16 g ai/ha, 0 to 100 scale
  Plant response rating, Ryegrass, Italian: 0
[2]; [13]
  Plant response rating, Ryegrass, Italian: 30
[3]; 8 g ai/ha, 0 to 100 scale
  Plant response rating, Wheat: 10
[3]; 16 g ai/ha, 0 to 100 scale
  Plant response rating, Wheat: 35
[3]; [13]
  Plant response rating, Wheat: 40
[4]; 8 g ai/ha, 0 to 100 scale
  Plant response rating, Cocklebur: 75
[4]; 16 g ai/ha, 0 to 100 scale
  Plant response rating, Cocklebur: 80
[4]; [13]
  Plant response rating, Cocklebur: 95
[5]; 8 g ai/ha, 0 to 100 scale
  Plant response rating, Nutsedge, Yellow: 10
[5]; 16 g ai/ha, 0 to 100 scale
  Plant response rating, Nutsedge, Yellow: 20
[5]; [13]
  Plant response rating, Nutsedge, Yellow: 40
[6]; 8 g ai/ha, 0 to 100 scale
  Plant response rating, Soybean: 80
[6]; 16 g ai/ha, 0 to 100 scale
  Plant response rating, Soybean: 85
[6]; [13]
  Plant response rating, Soybean: 95
[7]; 8 g ai/ha, 0 to 100 scale
  Plant response rating, Velvetleaf: 98
[7]; 16 g ai/ha, 0 to 100 scale
  Plant response rating, Velvetleaf: 100
[7]; [13]
  Plant response rating, Velvetleaf: 100
[8]; 8 g ai/ha, 0 to 100 scale
  Plant response rating, Bermudagrass: 70
[8]; 16 g ai/ha, 0 to 100 scale
  Plant response rating, Bermudagrass: 80
[8]; 13 to 15 days
  Bermudagrass plant response rating (0 to 100 scale): 100
[8]; [13]
  Plant response rating, Bermudagrass: 95
[9]; 8 g ai/ha, 0 to 100 scale
  Plant response rating, Crabgrass, Large: 65
[9]; 16 g ai/ha, 0 to 100 scale
  Plant response rating, Crabgrass, Large: 75
[9]; [13]
  Plant response rating, Crabgrass, Large: 80
[10]; 8 g ai/ha, 0 to 100 scale
  Plant response rating, Kochia: 20
[10]; 16 g ai/ha, 0 to 100 scale
  Plant response rating, Kochia: 20
[10]; [13]
  Plant response rating, Kochia: 40
[11]; 8 g ai/ha, 0 to 100 scale
  Plant response rating, Bromegrass, Downy: 15
[11]; 16 g ai/ha, 0 to 100 scale
  Plant response rating, Bromegrass, Downy: 15
[11]; 13 to 15 days
  Bromegrass, Downy plant response rating (0 to 100 scale): 50
[11]; [13]
  Plant response rating, Bromegrass, Downy: 50
[12]; 8 g ai/ha, 0 to 100 scale
  Plant response rating, Cupgrass, Woolly: 60
[12]; 16 g ai/ha, 0 to 100 scale
  Plant response rating, Cupgrass, Woolly: 65
[12]; [13]
  Plant response rating, Cupgrass, Woolly: 70
